Assay results reported in PMC4774911, “Biochemical Screening of Five Protein Kinases from Plasmodium falciparum against 14,000 Cell-Active Compounds” (PLoS ONE, 2016).
Several values for one entry are separate records, joined by “and”; a condition that tells them apart may be missing. Identical values can stand only once.

Experiments:
Assay in all cases: biochemical
MAP3K2 = biological target: T1, MAP3K2 (Homo sapiens, UniProt Q9Y2U5)
T1 sequence (Q9Y2U5 1-619): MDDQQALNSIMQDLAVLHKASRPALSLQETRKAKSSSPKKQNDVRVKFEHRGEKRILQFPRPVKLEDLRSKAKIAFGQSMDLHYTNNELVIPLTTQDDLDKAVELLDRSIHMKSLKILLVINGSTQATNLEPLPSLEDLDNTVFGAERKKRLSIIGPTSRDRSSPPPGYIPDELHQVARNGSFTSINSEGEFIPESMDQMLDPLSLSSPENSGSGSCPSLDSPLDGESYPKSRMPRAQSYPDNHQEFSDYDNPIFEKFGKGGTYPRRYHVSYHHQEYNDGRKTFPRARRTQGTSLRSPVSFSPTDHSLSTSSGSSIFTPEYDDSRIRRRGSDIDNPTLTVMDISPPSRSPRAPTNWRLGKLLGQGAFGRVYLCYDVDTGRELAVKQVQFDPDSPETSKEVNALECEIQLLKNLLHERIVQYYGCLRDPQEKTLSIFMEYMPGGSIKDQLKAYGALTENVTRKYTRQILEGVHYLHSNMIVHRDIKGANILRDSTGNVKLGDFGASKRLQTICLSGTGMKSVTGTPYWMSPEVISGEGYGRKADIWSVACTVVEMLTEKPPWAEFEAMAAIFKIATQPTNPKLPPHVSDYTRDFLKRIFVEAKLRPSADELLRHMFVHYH

BUB1 = BUB1 (Homo sapiens, UniProt O43683)
TTK = biological target: T2, TTK (Homo sapiens, UniProt P33981)
T2 sequence (P33981 1-857): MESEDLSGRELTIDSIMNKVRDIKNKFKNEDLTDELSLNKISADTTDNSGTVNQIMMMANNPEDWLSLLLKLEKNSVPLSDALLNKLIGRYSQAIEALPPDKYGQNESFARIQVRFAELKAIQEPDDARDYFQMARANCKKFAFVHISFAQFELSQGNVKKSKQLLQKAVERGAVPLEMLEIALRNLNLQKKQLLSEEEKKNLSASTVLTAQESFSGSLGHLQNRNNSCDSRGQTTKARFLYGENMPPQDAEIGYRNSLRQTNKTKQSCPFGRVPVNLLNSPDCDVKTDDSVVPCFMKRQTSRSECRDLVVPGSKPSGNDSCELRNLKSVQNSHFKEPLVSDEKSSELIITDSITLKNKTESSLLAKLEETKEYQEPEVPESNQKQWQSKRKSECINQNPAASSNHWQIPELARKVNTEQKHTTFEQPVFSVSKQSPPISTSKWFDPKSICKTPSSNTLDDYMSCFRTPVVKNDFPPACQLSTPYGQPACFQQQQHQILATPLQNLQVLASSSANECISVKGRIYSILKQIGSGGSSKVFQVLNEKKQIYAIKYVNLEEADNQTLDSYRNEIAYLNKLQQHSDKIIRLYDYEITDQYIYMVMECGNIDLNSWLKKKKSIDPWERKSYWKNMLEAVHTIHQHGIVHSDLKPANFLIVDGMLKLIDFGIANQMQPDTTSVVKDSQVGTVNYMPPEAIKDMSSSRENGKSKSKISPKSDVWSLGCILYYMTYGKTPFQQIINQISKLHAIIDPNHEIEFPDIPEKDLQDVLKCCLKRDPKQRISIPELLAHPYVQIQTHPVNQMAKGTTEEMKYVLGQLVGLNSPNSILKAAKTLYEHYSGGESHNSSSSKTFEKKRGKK

IKBKB = biological target: T3, IKBKB (Homo sapiens, UniProt O14920)
T3 sequence (O14920 1-756): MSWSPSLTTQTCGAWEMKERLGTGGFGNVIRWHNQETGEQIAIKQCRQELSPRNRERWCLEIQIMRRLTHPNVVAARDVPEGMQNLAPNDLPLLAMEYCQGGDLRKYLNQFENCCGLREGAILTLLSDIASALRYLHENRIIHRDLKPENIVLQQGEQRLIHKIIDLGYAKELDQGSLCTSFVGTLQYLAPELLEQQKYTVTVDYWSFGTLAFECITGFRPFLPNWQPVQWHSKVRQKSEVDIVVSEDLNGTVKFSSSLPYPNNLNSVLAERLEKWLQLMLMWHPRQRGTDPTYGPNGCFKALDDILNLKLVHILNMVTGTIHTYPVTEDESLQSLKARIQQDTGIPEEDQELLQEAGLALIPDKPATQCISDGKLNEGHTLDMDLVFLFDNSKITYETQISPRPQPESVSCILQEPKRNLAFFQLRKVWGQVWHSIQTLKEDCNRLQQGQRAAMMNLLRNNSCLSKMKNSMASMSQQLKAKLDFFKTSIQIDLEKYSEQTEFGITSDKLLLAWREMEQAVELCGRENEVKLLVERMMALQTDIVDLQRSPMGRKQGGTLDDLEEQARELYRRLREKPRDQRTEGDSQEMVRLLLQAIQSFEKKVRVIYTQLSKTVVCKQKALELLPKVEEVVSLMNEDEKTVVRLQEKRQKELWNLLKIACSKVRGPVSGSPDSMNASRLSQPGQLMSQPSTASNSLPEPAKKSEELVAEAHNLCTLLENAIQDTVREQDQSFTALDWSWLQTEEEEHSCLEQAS

CSNK2A1 = CSNK2A1 (Homo sapiens, UniProt P68400)
TNIK = TNIK (Homo sapiens, UniProt Q9UKE5)
MAP2K5 = biological target: T4, MAP2K5 (Homo sapiens, UniProt Q13163)
T4 sequence (Q13163 1-448): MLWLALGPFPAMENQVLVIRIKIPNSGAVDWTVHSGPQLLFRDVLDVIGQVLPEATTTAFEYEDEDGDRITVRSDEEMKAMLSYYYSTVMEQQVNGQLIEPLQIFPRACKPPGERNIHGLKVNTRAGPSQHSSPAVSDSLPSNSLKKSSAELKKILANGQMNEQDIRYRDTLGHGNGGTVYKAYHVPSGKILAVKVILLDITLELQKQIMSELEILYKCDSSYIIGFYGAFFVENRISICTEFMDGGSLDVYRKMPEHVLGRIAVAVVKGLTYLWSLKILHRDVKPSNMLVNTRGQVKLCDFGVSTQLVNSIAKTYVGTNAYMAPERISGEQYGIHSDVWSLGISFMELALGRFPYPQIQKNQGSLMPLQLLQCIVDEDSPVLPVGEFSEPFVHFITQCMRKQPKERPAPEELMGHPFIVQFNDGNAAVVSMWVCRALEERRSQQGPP

Chain of TNIK (Q9UKE5 whole entry): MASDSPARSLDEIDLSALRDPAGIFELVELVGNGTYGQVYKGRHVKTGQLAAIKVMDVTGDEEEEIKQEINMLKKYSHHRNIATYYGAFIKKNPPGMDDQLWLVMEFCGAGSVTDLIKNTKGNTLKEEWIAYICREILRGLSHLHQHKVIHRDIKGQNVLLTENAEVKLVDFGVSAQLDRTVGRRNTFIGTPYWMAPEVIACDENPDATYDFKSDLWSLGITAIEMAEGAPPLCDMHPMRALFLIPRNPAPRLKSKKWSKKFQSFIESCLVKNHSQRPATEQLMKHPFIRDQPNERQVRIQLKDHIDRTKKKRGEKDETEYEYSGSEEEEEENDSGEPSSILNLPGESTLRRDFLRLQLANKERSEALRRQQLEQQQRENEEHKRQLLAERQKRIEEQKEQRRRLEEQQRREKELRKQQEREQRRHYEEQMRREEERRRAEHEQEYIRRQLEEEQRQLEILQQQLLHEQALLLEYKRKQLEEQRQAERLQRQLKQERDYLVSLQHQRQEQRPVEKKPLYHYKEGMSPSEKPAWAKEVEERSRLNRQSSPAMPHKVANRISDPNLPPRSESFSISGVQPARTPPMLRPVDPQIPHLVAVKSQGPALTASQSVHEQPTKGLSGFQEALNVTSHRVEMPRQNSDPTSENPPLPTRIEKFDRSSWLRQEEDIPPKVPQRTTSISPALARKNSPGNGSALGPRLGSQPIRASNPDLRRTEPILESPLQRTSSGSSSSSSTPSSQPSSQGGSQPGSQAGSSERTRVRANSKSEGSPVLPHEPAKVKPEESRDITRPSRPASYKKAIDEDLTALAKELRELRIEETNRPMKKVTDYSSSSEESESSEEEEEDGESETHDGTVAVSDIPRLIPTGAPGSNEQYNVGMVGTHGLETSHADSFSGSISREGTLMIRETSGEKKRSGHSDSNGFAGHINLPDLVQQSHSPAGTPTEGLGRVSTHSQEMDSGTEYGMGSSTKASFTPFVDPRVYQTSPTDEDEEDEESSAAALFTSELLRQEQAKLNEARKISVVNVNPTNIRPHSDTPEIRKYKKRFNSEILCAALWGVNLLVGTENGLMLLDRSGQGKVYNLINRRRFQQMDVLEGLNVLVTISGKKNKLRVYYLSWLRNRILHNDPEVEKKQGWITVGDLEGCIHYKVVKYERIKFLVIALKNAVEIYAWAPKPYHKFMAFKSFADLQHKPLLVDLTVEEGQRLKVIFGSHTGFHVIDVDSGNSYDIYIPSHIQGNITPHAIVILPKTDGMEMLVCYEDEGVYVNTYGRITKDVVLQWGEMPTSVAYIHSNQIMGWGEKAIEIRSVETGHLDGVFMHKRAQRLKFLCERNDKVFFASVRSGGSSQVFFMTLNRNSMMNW
Chain of CSNK2A1 (P68400 whole entry): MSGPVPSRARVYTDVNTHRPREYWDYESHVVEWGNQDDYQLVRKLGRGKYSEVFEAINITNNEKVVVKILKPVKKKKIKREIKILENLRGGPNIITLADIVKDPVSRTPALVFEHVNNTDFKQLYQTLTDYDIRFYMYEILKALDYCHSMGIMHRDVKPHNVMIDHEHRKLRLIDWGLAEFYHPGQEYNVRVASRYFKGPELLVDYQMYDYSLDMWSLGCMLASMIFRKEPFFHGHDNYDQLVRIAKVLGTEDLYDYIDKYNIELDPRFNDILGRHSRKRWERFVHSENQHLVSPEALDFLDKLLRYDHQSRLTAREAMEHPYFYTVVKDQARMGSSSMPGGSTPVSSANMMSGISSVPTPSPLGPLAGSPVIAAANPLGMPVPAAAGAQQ
Chain of BUB1 (O43683 whole entry): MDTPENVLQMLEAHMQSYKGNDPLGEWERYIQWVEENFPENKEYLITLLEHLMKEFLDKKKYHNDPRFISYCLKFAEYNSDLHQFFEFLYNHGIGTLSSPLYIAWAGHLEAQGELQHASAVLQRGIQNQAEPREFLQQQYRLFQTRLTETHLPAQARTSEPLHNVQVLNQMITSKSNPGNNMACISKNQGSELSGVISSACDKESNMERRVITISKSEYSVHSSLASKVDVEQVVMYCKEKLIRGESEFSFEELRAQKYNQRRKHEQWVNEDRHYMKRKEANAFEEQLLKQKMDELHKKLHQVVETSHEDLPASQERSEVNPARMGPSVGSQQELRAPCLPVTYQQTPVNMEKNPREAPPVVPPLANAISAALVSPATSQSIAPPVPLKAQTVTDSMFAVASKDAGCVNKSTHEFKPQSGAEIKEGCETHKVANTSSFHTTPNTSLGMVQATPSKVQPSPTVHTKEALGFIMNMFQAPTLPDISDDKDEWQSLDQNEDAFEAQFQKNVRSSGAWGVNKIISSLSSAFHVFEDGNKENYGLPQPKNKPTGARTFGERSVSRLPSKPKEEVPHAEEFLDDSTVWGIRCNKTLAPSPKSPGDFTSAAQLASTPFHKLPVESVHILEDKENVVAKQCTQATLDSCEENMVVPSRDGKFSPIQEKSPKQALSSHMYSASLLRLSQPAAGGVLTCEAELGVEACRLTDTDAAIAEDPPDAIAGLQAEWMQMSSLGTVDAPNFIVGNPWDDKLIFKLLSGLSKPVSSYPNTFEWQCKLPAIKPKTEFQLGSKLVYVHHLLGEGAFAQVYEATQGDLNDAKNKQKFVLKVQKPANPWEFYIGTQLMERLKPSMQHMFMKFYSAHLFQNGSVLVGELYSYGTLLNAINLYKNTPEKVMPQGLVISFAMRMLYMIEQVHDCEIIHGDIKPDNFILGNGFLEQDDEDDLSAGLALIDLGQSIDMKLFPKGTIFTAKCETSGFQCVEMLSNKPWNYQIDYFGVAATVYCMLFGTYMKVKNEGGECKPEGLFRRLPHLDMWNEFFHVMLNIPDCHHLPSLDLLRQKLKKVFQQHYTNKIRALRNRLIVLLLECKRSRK

Row | Compound | IC50 (MAP3K2) [µM] | IC50 (BUB1) | IC50 (TTK) | IC50 (IKBKB) [µM] | IC50 (CSNK2A1) | IC50 (TNIK) | IC50 (MAP2K5)
1 | CN1CCN(c2ccc(Nc3ncc(C#N)c(Nc4ccccc4C(N)=O)n3)cc2)CC1.Cl [TCMDC-134116] | 0.49 | 0.37 µM and 0.32 µM | 0.54 µM and 0.44 µM | > 20 | ≤ 0.032 µM and 0.034 µM | 0.2 µM and 0.25 µM | 0.4 µM and 0.52 µM
2 | Cl.NCC1(c2nc(-c3ccc(Cl)c(O)c3)c(-c3ccncc3)[nH]2)CCCCC1 [TCMDC-141154] | 1.2 | 0.24 µM and 0.17 µM | > 20 µM | > 20 | > 20 µM | 0.29 µM | 0.88 µM
3 | CN(C)CC(O)COc1ccc(Nc2ncc([N+](=O)[O-])c(Nc3ccccc3O)n2)cc1.O=C(O)C(F)(F)F (stereo not drawn) [TCMDC-141399] | > 20 | > 20 µM | > 20 µM | > 20 | 0.092 µM | 0.82 µM | > 20 µM
